The values that follow come from ChEMBL document CHEMBL2203267, “Synthesis, antioxidant and antimicrobial activity of novel vanillin derived piperidin-4-one oxime esters: preponderant role of the phenyl ester substituents on the piperidin-4-one oxime core” (Bioorg Med Chem Lett, 2012).

The test system of assay [1] is Candida albicans. The experiment in a line: Antifungal activity against Candida albicans MTCC 3017 at 500 ug/mL after 72 hrs by well plate method. Format: functional. As to conditions: MTCC 3017, 72 h, read-out: DIZ.
Assay [2] deals with Escherichia coli. The experiment in a line: Antibacterial activity against Escherichia coli ATCC 25922 at 500 ug/mL after 24 hrs by well plate method. Type of assay: functional. As to conditions: ATCC 25922, 24 h, read-out: DIZ.
A short description of assay [3]: Antioxidant activity assessed as ABTS+ radical scavenging activity after 30 mins by UV-vis spectrophotometric analysis. Format: functional.
Assay [4] in a line: Antifungal activity against Chrysosporium keratinophilum MTCC 2827 at 1000 ug/mL after 72 hrs by well plate method. Type of assay: functional.
Assay [5] deals with Pseudomonas aeruginosa. The experiment in a line: Antibacterial activity against Pseudomonas aeruginosa ATCC 27853 at 500 ug/mL after 24 hrs by well plate method. Format: functional. As to conditions: ATCC 27853, 24 h, read-out: DIZ.
The test system of assay [6] is Aspergillus flavus. The experiment in a line: Antifungal activity against Aspergillus flavus MTCC 3306 at 500 ug/mL after 72 hrs by well plate method. Type of assay: functional. As to conditions: MTCC 3306, 72 h, read-out: DIZ.
The test system of assay [7] is Staphylococcus aureus. The experiment in a line: Antibacterial activity against Staphylococcus aureus ATCC 25923 at 1000 ug/mL after 24 hrs by well plate method. Format: functional. Particulars: ATCC 25923, 24 h, read-out: DIZ.
Assay [8] concerns Pseudomonas aeruginosa. The experiment in a line: Antibacterial activity against Pseudomonas aeruginosa ATCC 27853 at 1000 ug/mL after 24 hrs by well plate method. Type of assay: functional. Particulars: ATCC 27853, 24 h, read-out: DIZ.
Assay [9] concerns Candida albicans. The experiment in a line: Antifungal activity against Candida albicans MTCC 3017 at 1000 ug/mL after 72 hrs by well plate method. As to conditions: MTCC 3017, 72 h, read-out: DIZ. Format: functional.
The subject of assay [10] is Escherichia coli. The experiment in a line: Antibacterial activity against Escherichia coli ATCC 25922 at 1000 ug/mL after 24 hrs by well plate method. Format: functional. Particulars: ATCC 25922, 24 h, read-out: DIZ.
Assay [11] relates to Liver microsomes. The experiment in a line: Antioxidant activity in Wistar rat liver microsomes assessed as inhibition of lipid peroxidation after 60 mins by UV-vis spectrophotometric analysis. Format: functional, Microsome. A general note: Microsomes from liver hold many membrane-bound enzymes, among them those of drug oxidation.
Assay [12] can be described thus: Antifungal activity against Chrysosporium keratinophilum MTCC 2827 at 500 ug/mL after 72 hrs by well plate method. Type of assay: functional.
The subject of assay [13] is Radical scavenging activity. The experiment in a line: Antioxidant activity assessed as DPPH radical scavenging activity after 20 mins by UV-vis spectrophotometric analysis. Format: functional. (The DPPH test is a chemical assay of radical scavenging.)
Assay [14] relates to Aspergillus flavus. The experiment in a line: Antifungal activity against Aspergillus flavus MTCC 3306 at 1000 ug/mL after 72 hrs by well plate method. Type of assay: functional. As to conditions: MTCC 3306, 72 h, read-out: DIZ.
Assay [15] relates to Staphylococcus aureus. The experiment in a line: Antibacterial activity against Staphylococcus aureus ATCC 25923 at 500 ug/mL after 24 hrs by well plate method. Format: functional. Particulars: ATCC 25923, 24 h, read-out: DIZ.

Usually IC50 stands for the point on the concentration scale where inhibition reaches its midpoint. Take `COc1cc(C2CC(=NOC(=O)c3cc(O)cc(O)c3)CC(c3ccc(O)c(OC)c3)N2C)ccc1O` (configuration not stated): the zone of inhibition at 500 µg/mL in assay [1] turned out to be 3 mm; in assay [2], 5 mm; in assay [5], 4 mm; in assay [6] it was 1 mm; in assay [15], 5 mm. Also, the IC50 in assay [3] amounted to 12.3 µM; in assay [11] it was 17.2 µM; in assay [13] it was 10.8 µM. In addition, the inhibition zone (IZ) in [4] worked out at 1 mm; in [12], 2 mm. Further, the zone of inhibition at 1000 µg/mL is 5 mm in [7]; 5 mm in assay [8]; 3 mm in assay [9]; 4 mm in assay [10]; 2 mm in assay [14].

Take `COc1cc(C2CC(=NOC(=O)c3ccc(Cl)cc3)CC(c3ccc(O)c(OC)c3)N2C)ccc1O` (configuration not stated): the zone of inhibition at 500 µg/mL in assay [1] was determined as 16 mm; in [2], 12 mm; in [5] it was 12 mm; in [6], 12 mm; in [15] it was 9 mm. Also, the IC50 in [3] stood at 112 µM; in [11], 121 µM; in assay [13], 110 µM. Moreover, the inhibition zone (IZ) was found to be 10 mm in [4] and 12 mm in assay [12]. Besides, the zone of inhibition at 1000 µg/mL was determined as 13 mm in assay [7]; 15 mm in assay [8]; 19 mm in assay [9]; 17 mm in [10]; 15 mm in assay [14].

For `COc1cc(C2CC(=NOC(=O)c3cc(OC)c(OC)c(OC)c3)CC(c3ccc(O)c(OC)c3)N2C)ccc1O` (configuration not stated), the zone of inhibition at 500 µg/mL stood at 3 mm in assay [1]; 4 mm in assay [2]; 3 mm in assay [5]; 4 mm in assay [6]; 4 mm in [15]. Further, the values for the IC50 in assay [3], in assay [11] and in assay [13] were 53 µM, 61 µM and 40 µM, respectively. Moreover, the inhibition zone (IZ) stood at 6 mm in assay [4] and 3 mm in assay [12]. Also, the zone of inhibition at 1000 µg/mL was found to be 6 mm in assay [7]; 5 mm in [8]; 3 mm in assay [9]; 5 mm in assay [10]; 3 mm in assay [14].

Turning to `COc1cc(C2CC(=NOC(=O)c3ccccc3)CC(c3ccc(O)c(OC)c3)N2C)ccc1O` (configuration not stated), the zone of inhibition at 500 µg/mL in [1] was determined as 2 mm; in assay [2], 2 mm; in assay [5], 1 mm; in assay [6] it was 1 mm; in assay [15] it was 3 mm. Further, the 50% inhibitory concentration (IC50) in [3] amounted to 156 µM; in assay [11], 165 µM; in assay [13] it was 141 µM. Moreover, the inhibition zone (IZ) is 3 mm in assay [4] and 2 mm in assay [12]. Further, the zone of inhibition at 1000 µg/mL came out at 4 mm in assay [7]; 2 mm in assay [8]; 3 mm in [9]; 3 mm in assay [10]; 2 mm in [14].

For `COc1ccc(C(=O)ON=C2CC(c3ccc(O)c(OC)c3)N(C)C(c3ccc(O)c(OC)c3)C2)c(OC)c1` (configuration not stated), the zone of inhibition at 500 µg/mL came to 4 mm in assay [1]; 4 mm in assay [2]; 6 mm in assay [5]; 4 mm in assay [6]; 3 mm in [15]. Further, the IC50 in assay [3] was 41 µM; in assay [11] it was 52 µM; in [13], 32 µM. Also, the inhibition zone (IZ) in assay [4] is 5 mm; in assay [12], 4 mm. Besides, the zone of inhibition at 1000 µg/mL in [7] was 5 mm; in assay [8], 6 mm; in assay [9] it was 6 mm; in assay [10] it was 6 mm; in [14], 5 mm.

Consider `COc1cc(C2CC(=NOC(=O)c3cccc(O)c3)CC(c3ccc(O)c(OC)c3)N2C)ccc1O` (configuration not stated), for which the zone of inhibition at 500 µg/mL came out at 1 mm in [1]; 6 mm in [2]; 3 mm in [5]; 1 mm in assay [6]; 5 mm in assay [15]. For the same compound, the half-inhibitory concentration (IC50) in assay [3] was determined as 16.5 µM; in assay [11], 25.3 µM; in assay [13], 15.6 µM. Besides, the figures for the inhibition zone (IZ) in assay [4] and in assay [12] were 2 mm and 1 mm, respectively. Also, the zone of inhibition at 1000 µg/mL was found to be 7 mm in assay [7]; 5 mm in assay [8]; 3 mm in [9]; 7 mm in [10]; 2 mm in assay [14].

As for `COc1cc(C2CC(=NOC(=O)c3ccccc3O)CC(c3ccc(O)c(OC)c3)N2C)ccc1O` (configuration not stated), the zone of inhibition at 500 µg/mL amounted to 2 mm in assay [1]; 4 mm in [2]; 3 mm in assay [5]; 3 mm in assay [6]; 5 mm in assay [15]. The IC50 was found to be 15.9 µM in assay [3], 24.1 µM in [11] and 14.8 µM in assay [13]. Moreover, the results for the inhibition zone (IZ) in [4] and in assay [12] were 6 mm and 4 mm, respectively. In addition, the zone of inhibition at 1000 µg/mL in [7] turned out to be 5 mm; in assay [8], 4 mm; in assay [9], 6 mm; in assay [10], 6 mm; in assay [14] it was 4 mm.

`COc1cc(C2CC(=NOC(=O)c3ccc(F)cc3)CC(c3ccc(O)c(OC)c3)N2C)ccc1O` (configuration not stated): the zone of inhibition at 500 µg/mL in [1] turned out to be 18 mm; in [2] it was 13 mm; in assay [5], 13 mm; in assay [6], 13 mm; in assay [15] it was 13 mm. Moreover, the IC50 in assay [3] came to 141 µM; in assay [11], 140 µM; in assay [13], 133 µM. For the same compound, the inhibition zone (IZ) came out at 12 mm in assay [4] and 14 mm in assay [12]. Besides, the zone of inhibition at 1000 µg/mL worked out at 15 mm in [7]; 16 mm in assay [8]; 20 mm in [9]; 18 mm in assay [10]; 17 mm in assay [14].

With `CN[C@@H]1[C@H](O[C@H]2[C@H](O[C@H]3[C@H](O)[C@@H](O)[C@H](N=C(N)N)[C@@H](O)[C@@H]3N=C(N)N)O[C@@H](C)[C@]2(O)C=O)O[C@@H](CO)[C@H](O)[C@H]1O` [STREPTOMYCIN], the zone of inhibition at 500 µg/mL is 12 mm in assay [2], 13 mm in assay [5] and 12 mm in assay [15]. Besides, the figures for the zone of inhibition at 1000 µg/mL in [7], in assay [8] and in [10] were 15 mm, 16 mm and 18 mm, respectively.

Consider `OC(Cn1cncn1)(Cn1cncn1)c1ccc(F)cc1F` [FLUCONAZOLE], for which the zone of inhibition at 500 µg/mL in assay [1] amounted to 20 mm; in [6], 12 mm. Further, the inhibition zone (IZ) in [4] was determined as 17 mm; in assay [12], 16 mm. Further, the zone of inhibition at 1000 µg/mL stood at 22 mm in assay [9] and 14 mm in assay [14].

For `COc1cc(C2CC(=NOC(=O)c3ccc(O)cc3)CC(c3ccc(O)c(OC)c3)N2C)ccc1O` (configuration not stated), the zone of inhibition at 500 µg/mL in assay [1] came out at 2 mm; in assay [2] it was 4 mm; in assay [5] it was 2 mm; in assay [6] it was 12 mm; in assay [15], 4 mm. In addition, the half-maximal inhibitory concentration (IC50) in assay [3] came to 15.1 µM; in [11], 22.5 µM; in [13], 14.2 µM. Besides, the inhibition zone (IZ) in assay [4] turned out to be 3 mm; in [12], 2 mm. Moreover, the zone of inhibition at 1000 µg/mL stood at 6 mm in assay [7]; 3 mm in assay [8]; 2 mm in assay [9]; 5 mm in assay [10]; 1 mm in assay [14].

For `COc1cc(C2CC(=NOC(=O)c3cc(O)c(O)c(O)c3)CC(c3ccc(O)c(OC)c3)N2C)ccc1O` (configuration not stated), the zone of inhibition at 500 µg/mL is 6 mm in assay [1]; 5 mm in [2]; 3 mm in [5]; 2 mm in [6]; 4 mm in [15]. Also, the IC50 in assay [3] was 11.8 µM; in assay [11], 16.1 µM; in assay [13], 10 µM. The figures for the inhibition zone (IZ) in assay [4] and in assay [12] were 4 mm and 3 mm, respectively. Moreover, the zone of inhibition at 1000 µg/mL in assay [7] was found to be 6 mm; in [8], 4 mm; in assay [9], 8 mm; in assay [10] it was 7 mm; in assay [14], 4 mm.
